ChEMBL document CHEMBL1201862, “PubChem BioAssay data set” (2004)
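Five concentrations, 48 hours, 96-well plates. GI50 marks 50% less growth.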 Activity calls are given as the source filed them. No stated cut-off is given here; in the data, active = GI50 up to about 1.1 µM and inactive = higher.

What was measured:
Test in all cases: NCI anticancer screen, dose series, 48 h
786-0 = test system: 786-0
A498 = test system: A498
A549 = test system: A549
ACHN = test system: ACHN
BT-549 = test system: BT-549
CAKI-1 = test system: CAKI-1
CCRF-CEM = test system: CCRF-CEM
COLO 205 = test system: COLO 205
DU-145 = test system: DU-145
EKVX = test system: EKVX
HCC 2998 = test system: HCC 2998
HCT-116 = test system: HCT-116
HCT-15 = test system: HCT-15
HL-60 = test system: HL-60
HOP-62 = test system: HOP-62
HOP-92 = test system: HOP-92
HT-29 = test system: HT-29
Hs-578T = test system: Hs-578T
IGROV-1 = test system: IGROV-1
K562 = test system: K562
KM12 = test system: KM12
LOX IMVI = test system: LOX IMVI
M14 = test system: M14
MCF7 = test system: MCF7
MDA-MB-231 = test system: MDA-MB-231
MDA-MB-435 = test system: MDA-MB-435
MDA-N = test system: MDA-N
MOLT-4 = test system: MOLT-4
Malme-3M = test system: Malme-3M
NCI-H226 = test system: NCI-H226
NCI-H23 = test system: NCI-H23
NCI-H460 = test system: NCI-H460
NCI-H522 = test system: NCI-H522
NCI/ADR-RES = test system: NCI/ADR-RES
OVCAR-3 = test system: OVCAR-3
OVCAR-4 = test system: OVCAR-4
OVCAR-5 = test system: OVCAR-5
OVCAR-8 = test system: OVCAR-8
PC-3 = test system: PC-3
RPMI-8226 = test system: RPMI-8226
RXF 393 = test system: RXF 393
SF-268 = test system: SF-268
SF-295 = test system: SF-295
SF-539 = test system: SF-539
SK-MEL-28 = test system: SK-MEL-28
SK-MEL-2 = test system: SK-MEL-2
SK-MEL-5 = test system: SK-MEL-5
SK-OV-3 = test system: SK-OV-3
SN12C = test system: SN12C
SNB-19 = test system: SNB-19
SNB-75 = test system: SNB-75
SR = test system: SR
SW-620 = test system: SW-620
T47D = test system: T47D
TK-10 = test system: TK-10
U-251 = test system: U-251
UACC-257 = test system: UACC-257
UACC-62 = test system: UACC-62
UO-31 = test system: UO-31

Measured: GI50

CCc1nc(N)nc(N)c1-c1ccc2nn(-c3ccccc3)[n+]([O-])c2c1
697 nM: HCT-15
active: A549 378 nM | HCT-116 396 nM | HL-60 902 nM | K562 203 nM | LOX IMVI 1.01 µM | MDA-N 895 nM | NCI-H460 361 nM | SW-620 869 nM | UACC-62 1.02 µM
inactive: 786-0 1.16 µM | A498 8.43 µM | ACHN 1.76 µM | BT-549 11.9 µM | CAKI-1 4.47 µM | CCRF-CEM 1.6 µM | COLO 205 8.22 µM | DU-145 6.14 µM | EKVX 7.96 µM | HCC 2998 4.59 µM | HOP-62 5.82 µM | HOP-92 8.91 µM | HT-29 1.26 µM | Hs-578T 17.9 µM | IGROV-1 1.67 µM | KM12 5.45 µM | M14 1.33 µM | MCF7 4.17 µM | MDA-MB-231 11.7 µM | MDA-MB-435 1.27 µM | MOLT-4 2.84 µM | Malme-3M 10.7 µM | NCI-H226 14.5 µM | NCI-H23 1.87 µM | NCI-H522 2.83 µM | NCI/ADR-RES 3.13 µM | OVCAR-3 7.62 µM | OVCAR-4 11.9 µM | OVCAR-5 14 µM | OVCAR-8 2.42 µM | PC-3 1.23 µM | RPMI-8226 8.24 µM | RXF 393 10.3 µM | SF-268 5.12 µM | SF-295 2.4 µM | SF-539 3.7 µM | SK-MEL-28 11.8 µM | SK-MEL-2 14.3 µM | SK-MEL-5 2.61 µM | SK-OV-3 39.1 µM | SN12C 9.38 µM | SNB-19 16.3 µM | SNB-75 21.3 µM | SR 1.35 µM | T47D 13.1 µM | TK-10 15 µM | U-251 2.58 µM | UACC-257 10.6 µM | UO-31 7.13 µM
